# Measurements: patent publication US7030143B2, “Heterocyclic compounds” (Nippon Shinyaku Co., Ltd., priority 2000, dated 2006)
# System: KK-A^y mice
# Experiment: Effects on carbohydrate and lipid metabolism in KK-A^y mouse
# Type: in vivo
# Details: oral, 4 days; for Percent change of each parameter compared to control group (%): AI: Atherogenic Index = (TC − HDL-C)/HDL-C; for Percent change of each parameter compared to control group (%): BG: plasma glucose level; for Percent change of each parameter compared to control group (%): Ins: plasma insulin level; for Percent change of each parameter compared to control group (%): TG: plasma triglyceride level; for Percent change of each parameter compared to control group (%): HDL-C: serum HDL-C level; for Percent change of each parameter compared to control group (%): (V)LDL-C: sum of VLDL-C and LDL-C level in serum
# Experimental: The experiment was conducted using the compounds described in the Examples as test compounds and Troglitazone (5-[4-(6-hydroxy-2,5,7,8-tetramethylchroman-2-ylmethoxy)benzyl]-2,4-thiazolidinedione) as a control compound.
# Each test compound was orally administered to KK-A^y mice (10 week old, male), NIDDM model animal, for 4 days at a given dosage. On the next day of the last administration, blood was collected from tail end blood vessels under non-fasting conditions to prepare heparinized plasma. Thereafter, blood was collected from an abdominal large vein under pentobarbital anesthesia to prepare serum. The glucose level (BG), triglyceride level (TG) and insulin level (Ins) in plasma were measured using a glucose CII-test Wako (Wako Pure Chemical Industries, Ltd), CLINTECH TG-S (IATORON LABORATORIES, INC.) or triglyceride E-test WAKO (Wako Pure Chemical Industries, Ltd), and a rat insulin measurement kit (Morinaga Biochemistry Research Institute) or REBIS-insulin-mouse-T (Mouse Insulin ELISA (TMB) KIT, Shibayagi Co., Ltd), respectively. Also, the sum of VLDL-C level and LDL-C level in serum (hereinafter, referred to as “(V)LDL-C”), total cholesterol level (TC) and HDL-C level were measured using a high performance liquid chromatography system for the measurement of lipoprotein cholesterol (TOSOH CORPORATION). (V)LDL-C level was measured because VLDL-C and LDL-C cannot be measured separately. Atherogenic Index (AI) was calculated according to the following formula: AI=[(TC level)−(HDL-C level)]/(HDL-C level).
Structure (SMILES),Percent change of each parameter compared to control group (%): AI (dose 1 mg/kg) [%],Percent change of each parameter compared to control group (%): BG (dose 1 mg/kg) [%],Percent change of each parameter compared to control group (%): Ins (dose 1 mg/kg) [%],Percent change of each parameter compared to control group (%): TG (dose 1 mg/kg) [%],Percent change of each parameter compared to control group (%): HDL-C (dose 1 mg/kg) [%],Percent change of each parameter compared to control group (%): (V)LDL-C (dose 1 mg/kg) [%],Percent change of each parameter compared to control group (%): AI (dose 3 mg/kg) [%],Percent change of each parameter compared to control group (%): BG (dose 3 mg/kg) [%],Percent change of each parameter compared to control group (%): Ins (dose 3 mg/kg) [%],Percent change of each parameter compared to control group (%): TG (dose 3 mg/kg) [%],Percent change of each parameter compared to control group (%): HDL-C (dose 3 mg/kg) [%],Percent change of each parameter compared to control group (%): (V)LDL-C (dose 3 mg/kg) [%],further results
"Cc1oc(-c2ccccc2)nc1CCCCC1COC(C)(C(=O)O)OC1 (stereo not drawn) [Example 9, 2-Methyl-c-5-[4-(5-methyl-2-phenyloxazol-4-yl)butyl]-1,3-dioxane-r-2-carboxylic acid]",−49,−12,−36,−46,36,−29,,,,,,,
"Cc1ccc(-c2nc(CCCCC3COC(C)(C(=O)O)OC3)c(C)o2)cc1 (stereo not drawn) [Example 11, 2-Methyl-c-5-{4-[5-methyl-2-(p-tolyl)oxazol-4-yl]butyl}-1,3-dioxane-r-2-carboxylic acid]",,,,,,,−91,−36,−16,−83,11,−89,
"CC1(C(=O)O)OCC(CCCCc2coc(-c3ccccc3)n2)CO1 (stereo not drawn) [Example 14, 2-Methyl-c-5-[4-(2-phenyloxazol-4-yl)butyl]-1,3-dioxane-r-2-carboxylic acid]",−45,−22,−67,−29,19,−38,,,,,,,
"Cc1oc(-c2ccc(C(C)(C)C)cc2)nc1CCCCC1COC(C)(C(=O)O)OC1 (stereo not drawn) [Example 18, c-5-{4-[2-(4-tert-Butylphenyl)-5-methyloxazol-4-yl]butyl}-2-methyl-1,3-dioxane-r-2-carboxylic acid]",,,,,,,−65,−12,−1,−43,76,−20,
"Cc1oc(-c2ccc(C(F)(F)F)cc2)nc1CCCCC1COC(C)(C(=O)O)OC1 (stereo not drawn) [Example 20, 2-Methyl-c-5-{4-[5-methyl-2-(4-trifluoromethylphenyl)-oxazol-4-yl]butyl}-1,3-dioxane-r-2-carboxylic acid]",−44,−15,−44,−31,30,−33,,,,,,,
"CCC1(C(=O)O)OCC(CCCCc2nc(-c3ccccc3)oc2C)CO1 (stereo not drawn) [Example 21, 2-Ethyl-c-5-[4-(5-methyl-2-phenyloxazol-4-yl)butyl]-1,3-dioxane-r-2-carboxylic acid]",,,,,,,−38,−18,−26,−52,5,−26,
"Cc1ccc(-c2nc(CCCCCCOC(C)(C)C(=O)O)c(C)o2)cc1 [Example 37, 2-Methyl-2-{6-[5-methyl-2-(p-tolyl)oxazol-4-yl]hexyloxy}propionic acid]",,,,,,,−70,−5,−27,−51,33,−54,
"Cc1oc(-c2ccccc2)nc1CC#CCCCOC(C)(C)C(=O)O [Example 38, 2-Methyl-2-[6-(5-methyl-2-phenyloxazol-4-yl)-4-hexynyloxy]propionic acid]",−65,−21,−39,−50,38,−38,,,,,,,
"Cc1oc(-c2ccc(Cl)cc2)nc1CCCCCCOC(C)(C)C(=O)O [Example 39, 2-{6-[2-(4-Chlorophenyl)-5-methyloxazol-4-yl]hexyloxy}-2-methylpropionic acid]",−73,−14,−20,−56,36,−53,,,,,,,
"Cc1oc(-c2ccccc2)nc1/C=C/CCC1COC(C)(C(=O)O)OC1 (stereo not drawn) [Example 53, 2-Methyl-c-5-[4-(5-methyl-2-phenyloxazol-4-yl)-(E)-3-butenyl]-1,3-dioxane-r-2-carboxylic acid]",,,,,,,−62,−46,−37,−51,3,−49,
"Cc1oc(-c2ccccc2)nc1C/C=C/CCCOC(C)(C)C(=O)O [Example 54, Potassium 2-methyl-2-[6-(5-methyl-2-phenyloxazol-4-yl)-(E)-4-hexenyloxy]propionate]",−83,−24,−14,−72,24,−77,,,,,,,
"Cc1oc(-c2ccccc2)nc1CCCCCCOC(C)(C)CO [Example 55, 2-Methyl-2-[6-(5-methyl-2-phenyloxazol-4-yl)hexyloxy]-propanol]",,,,,,,,,,,,,Percent change of each parameter compared to control group (%): AI (dose 10 mg/kg): −72%; Percent change of each parameter compared to control group (%): BG (dose 10 mg/kg): −22%; Percent change of each parameter compared to control group (%): Ins (dose 10 mg/kg): 2%; Percent change of each parameter compared to control group (%): TG (dose 10 mg/kg): −45%; Percent change of each parameter compared to control group (%): HDL-C (dose 10 mg/kg): 62%; Percent change of each parameter compared to control group (%): (V)LDL-C (dose 10 mg/kg): −44%
"Cc1ccc(-c2nc(CCCCC3COC(C)(C(=O)O)OC3)c(C)o2)cc1F (stereo not drawn) [Example 64, 2-Methyl-c-5-{4-[5-methyl-2-(3-fluoro-4-methylphenyl)-oxazol-4-yl]butyl}-1,3-dioxane-r-2-carboxylic acid]",−72,−12,−20,−53,21,−63,,,,,,,
"Cc1ccc(-c2nc(CCCCC3COC(C)(C(=O)O)OC3)c(C)s2)cc1 (stereo not drawn) [Example 70, 2-Methyl-c-5-{4-[5-methyl-2-(p-tolyl)thiazol-4-yl]-butyl}-1,3-dioxane-r-2-carboxylic acid]",,,,,,,−53,−15,5,−37,41,−33,
"Cc1cccc(-c2nc(CCCCC3COC(C)(C(=O)O)OC3)c(C)o2)c1 (stereo not drawn) [Example 71, 2-Methyl-c-5-{4-[5-methyl-2-(m-tolyl)oxazol-4-yl]butyl}-1,3-dioxane-r-2-carboxylic acid]",,,,,,,−90,−51,−61,−89,1,−90,
